Measured values from publication PMC7060351, “Biochemical features of the novel Tail Tubular Protein A of Yersinia phage phiYeO3-12” (Scientific Reports, 2020).

How the values were obtained:
TTPAgp11 [1] = biological target: T1, TTPAgp11 (Yersinia phage phiYeO3-12, UniProt Q9T106); test: nanoDSF thermal unfolding ([…] nm ratio); type: binding; conditions: 0.25 mg/ml protein, 0.15 mg/ml sugar; 2 °C/min from 20 to 95 °C; protein alone Tm 53.27 °C; inverted unfolding profile, aggregation
T1 construct: gene 11
T1 sequence (Q9T106 1-196): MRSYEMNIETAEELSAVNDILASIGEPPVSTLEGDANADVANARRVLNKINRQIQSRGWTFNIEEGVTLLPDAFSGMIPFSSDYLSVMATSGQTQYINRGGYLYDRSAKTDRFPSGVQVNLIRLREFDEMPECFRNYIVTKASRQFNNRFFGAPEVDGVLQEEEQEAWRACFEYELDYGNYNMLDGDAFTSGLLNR

TTPAgp11 [2] = biological target: T1, TTPAgp11; test: backreflection light scattering during nanoDSF melting scan (aggregation); type: binding; conditions: 0.25 mg/ml protein, 0.15 mg/ml sugar; 2 °C/min from 20 to 95 °C; no unfolding Tm obtained (NA); no scattering transition for protein alone (NA)
Description: backreflection light scattering during nanoDSF melting scan (aggregation) on TTPAgp11

TTPAgp11 [3] = biological target: T1, TTPAgp11; test: GC of released glucose after MTBSTFA derivatisation; type: biochemical; conditions: PBS, room temperature, 24 h; 20 µl of 47 µM protein, 100 µl of 1 mg/ml maltose in 0.2 ml

SMILES | Tm / Fluorescence ratio 350 nm/330 nm / [°C] (TTPAgp11 [1]) | Tm / Scattering / [°C] (TTPAgp11 [2]) | % of maltose hydrolyzed (TTPAgp11 [3])
CC(=O)N[C@H]1C(O)O[C@H](CO)[C@@H](O)[C@@H]1O (stereo partly drawn) [N-acetylglucosamine] | 36.41 °C |  | 
OC[C@H]1O[C@H](O[C@H]2[C@H](O)[C@@H](O)C(O)O[C@@H]2CO)[C@H](O)[C@@H](O)[C@@H]1O (stereo partly drawn) [maltose] |  | 36.26 °C | 15–18%
